# Assays:
# CHP-212 = test: Antitumor activity against human CHP212 cells xenografted in Crl:CD-1-Foxn1 nude mouse assessed as tumor growth inhibition at 15 mg/kg, po administered once daily for 42 days relative to control; format: functional; details: CHP-212, po, 1008 h, read-out: TGI
# [1] = Oral bioavailability in dog; format: ADME, organism-based, Canis lupus familiaris; details: in vivo
# [2] = Oral bioavailability in monkey; format: ADME, organism-based, Macaca mulatta; details: rhesus monkey, in vivo
# [3] = target: T1, Bromodomain-containing protein 4 (Homo sapiens, UniProt O60885); test: Inhibition of acetyl-histone H4 peptide binding to His6-tagged BRD4 (1 to 477 residues) (unknown origin) after 35 mins by TR-FRET assay
# MX1 [4] = test: Antiproliferative activity against human MX1 cells after 72 hrs by CellTiter-Glo assay; format: functional, cell-based; details: MX1, 72 h
# [5] = target: T1, Bromodomain-containing protein 4; test: Inhibition of His-tagged BRD4 bromodomain 1 (K57 to E168 residues) (unknown origin) by Alexa-647 conjugated probe based TR-FRET assay; format: single protein
# [6] = target: T1, Bromodomain-containing protein 4; test: Inhibition of His-tagged BRD4 bromodomain 2 (E352 to M457 residues) (unknown origin) by Alexa-647 conjugated probe based TR-FRET assay; format: single protein
# OPM-2 [7] = test: Antitumor activity against human OPM2 cells xenografted in SCID Beige mouse assessed as tumor growth inhibition at 2.5 mg/kg, po administered once daily for 21 days relative to control; format: functional; details: OPM-2, po, 504 h, read-out: TGI
# [8] = target: T1, Bromodomain-containing protein 4; test: Binding affinity to BRD4 bromodomain 1 (unknown origin) by isothermal titration calorimetry
# HL-60 = test: Growth inhibition of human HL60 cells at 10 uM after 48 hrs by sulforhodamine B assay; format: functional; details: HL-60, 48 h, read-out: GI
# [9] = target: T1, Bromodomain-containing protein 4; test: Binding affinity to human partial length BRD4 bromodomain 1 long isoform (N44 to E168 residues) expressed in bacterial expression system by BROMOscan assay
# [10] = target: T1, Bromodomain-containing protein 4
# Description: Inhibition of biotinylated Acetyl-Histone H4 (Lys5, 8, 12, 16) peptide binding to GST-tagged BRD4 bromodomain 1 (44 to 168 residues) (unknown origin) after 30 mins by Alphascreen method
# [11] = Induction of apoptosis in human Mino cells after 48 hrs by Annexin-V/propidium iodide staining based assay; format: functional, cell-based
# Z-138 = test: Induction of apoptosis in human ibrutinib-resistant Z138 cells after 48 hrs by Annexin-V/propidium iodide staining based assay; format: functional, cell-based; details: Z-138, 48 h
# VCaP = test: Antitumor activity against human VCaP cells xenografted in mouse assessed as tumor growth inhibition at 30 mg/kg, sc administered once every 3 days for 15 days; details: 360 h, read-out: TGI
# [12] = target: T1, Bromodomain-containing protein 4; test: Inhibition of biotin-labelled histone peptide binding to His-tagged BRD4 (unknown origin) expressed in Escherichia coli after 30 mins by TR-FRET assay
# MV4-11 [13] = test: Antiproliferative activity against human MV4-11 cells; format: functional, cell-based
# [14] = target: T1, Bromodomain-containing protein 4; test: Inhibition of biotin-labelled tetra-acetylated histone peptide binding to recombinant human N-terminal His6-tagged BRD4 bromodomain 1 (1 to 477 residues) (unknown origin) expressed in Escherichia coli after 1 hr by TR-FRET assay
# [15] = target: T1, Bromodomain-containing protein 4; test: Inhibition of biotinylated Acetyl-Histone H4 (Lys5, 8, […], […]) peptide binding to GST-tagged BRD4 bromodomain 2 (333 to 460 residues) (unknown origin) after 30 mins by Alphascreen method
# MX1 [16] = test: Antiproliferative activity against human MX1 cells; format: functional, cell-based
# OPM-2 [17] = test: Antitumor activity against human OPM2 cells xenografted in SCID Beige mouse assessed as tumor growth inhibition at 5 mg/kg, po administered once daily for 21 days relative to control; format: functional; details: OPM-2, po, 504 h, read-out: TGI
# [18] = target: T1, Bromodomain-containing protein 4; test: Inhibition of recombinant human N-terminal His-tagged/C-terminal FLAG-tagged BRD4 bromodomain 1 (44 to 168 residues) expressed in Escherichia coli using histone peptide as substrate preincubated for 15 mins followed by substrate addition and measured after 60 mins
# MV4-11 [19] = test: Antiproliferative activity against human MV4-11 cells after 72 hrs by CellTiter-Glo assay; format: functional, cell-based; details: MV4-11, 72 h
# MDA-MB-453 [20] = test: Antiproliferative activity against human MDA-MB-453 cells; format: functional, cell-based
# MDA-MB-453 [21] = test: Antitumor activity against human MDA-MB-453 cells xenografted in SCID mouse assessed as tumor growth inhibition at 5 mg/kg, iv; details: MDA-MB-453, iv, read-out: TGI
# [22] = target: T1, Bromodomain-containing protein 4; test: Inhibition of acetylated biotin-labelled RHGSGSK binding to N-terminal His6-tagged BRD4 bromodomain 1 (67 to 152 residues) (unknown origin) expressed in Escherichia coli after 1 hr by TR-FRET assay
# [23] = target: T1, Bromodomain-containing protein 4; test: Inhibition of acetylated biotin-labelled RHGSGSK binding to BRD4 bromodomain 2 (unknown origin) after 1 hr by TR-FRET assay
# [24] = target: T1, Bromodomain-containing protein 4; test: Inhibition of His6-tagged BRD4 (1 to 477 residues) (unknown origin) after 1 hr by Alexa fluor 488-conjugated probe based fluorescence anisotropy
# [25] = target: T1, Bromodomain-containing protein 4; test: Inhibition of acetylated biotin-labelled RHGSGSK binding to N-terminal His6-tagged BRD4 bromodomain 1 (44 to 168 residues) (unknown origin) expressed in Escherichia coli after 1 hr by TR-FRET assay
# MOLM-13 [26] = test: Antiproliferative activity against human MOLM13 cells after 96 hrs by alamar blue assay; format: functional, cell-based; details: MOLM-13, 96 h
# [27] = target: T1, Bromodomain-containing protein 4; test: Inhibition of biotinylated histone H4 peptide binding to BRD4 bromodomain 1 (44 to 168 residues) (unknown origin) after 60 mins by Alphascreen method
# [28] = target: T1, Bromodomain-containing protein 4; test: Inhibition of biotinylated histone H4 peptide binding to BRD4 bromodomain 2 (333 to 460 residues) (unknown origin) after 60 mins by Alphascreen method
# [29] = target: Bromodomain-containing protein 4 (Homo sapiens, UniProt O60885, Y97A); test: Inhibition of recombinant human N-terminal His6-tagged BRD4 Y97A mutant (1 to 477 residues) expressed in Escherichia coli after 30 mins by Alexa Fluor647 conjugated probe based TR-FRET assay
# [30] = target: T1, Bromodomain-containing protein 4; test: Inhibition of BRD4 bromodomain 1 (unknown origin)
# [31] = target: T1, Bromodomain-containing protein 4; test: Inhibition of BRD4 bromodomain 2 (unknown origin)
# MOLM-13 [32] = test: Antiproliferative activity against human MOLM13 cells; format: functional, cell-based
# [33] = Oral bioavailability in rat; format: ADME, organism-based; details: in vivo
# MV4-11 [34] = test: Antitumor activity against human MV4-11 cells xenografted in po dosed mouse assessed as tumor regression administered once daily relative to control; format: functional
# [35] = target: T1, Bromodomain-containing protein 4; test: Inhibition of BRD4 in human MM1S cells assessed as down regulation of c-Myc expression after 1 hr by Western blot analysis
# [36] = Antiproliferative activity against human CLL cells assessed as inhibition of CpG-induced cell proliferation treated for 4 hrs followed by compound washout for 44 to 48 hrs by MTS assay; format: functional, cell-based
structure (smiles),measurement,setting,value
CC(=O)N1c2ccc(-c3ccc(C(=O)O)cc3)cc2[C@H](Nc2ccc(Cl)cc2)C[C@@H]1C,inhibition in vivo at 15 mg/kg,CHP-212,82%
same,bioavailability,[1],80%
same,bioavailability,[2],100%
Cc1nn(C2CC2)c2c1[C@@H](c1ccc(Cl)cc1)N(c1cc(C)c3nnc(C)n3n1)C2=O,IC50,[3],< 11 nM
Cn1cc2c3c(c[nH]c(=O)c31)CN(c1ccccn1)c1ccc(CS(C)(=O)=O)cc1-2,EC50,MX1 [4],16 nM
same,IC50,[5],1.1 nM
same,IC50,[6],2.1 nM
same,inhibition in vivo at 2.5 mg/kg,OPM-2 [7],79%
CCc1c(C(=O)Nc2cc(S(=O)(=O)N(CC)CC)ccc2O)[nH]c(C)c1C(C)=O,Kd,[8],237 nM
same,inhibition of growth at 10 µM,HL-60,65%
CC(=O)N1CC(n2cc(C3CC3)c3c2C(c2ccc(Cl)cc2)N(c2cc(C)c4nnn(C)c4n2)C3=O)C1 (stereo not given),IC50,[3],< 11 nM
Cc1sc2c(c1C)C(c1ccc(Cl)cc1)=N[C@@H](CC(=O)OCCCCCCO)c1nnc(C)n1-2,IC50,[9],0.43 nM
CCN1C(=O)C(C)(C)c2cc3nc(-c4cc(C)c(=O)n(C)c4)n([C@@H](C)c4ccccc4)c3cc21,IC50,[10],1.3 nM
Cc1ncsc1-c1ccc([C@H](C)NC(=O)[C@@H]2C[C@@H](O)CN2C(=O)[C@@H](NC(=O)COCCCOCCNC(=O)C[C@@H]2N=C(c3ccc(Cl)cc3)c3c(sc(C)c3C)-n3c(C)nnc32)C(C)(C)C)cc1,IC50,[11],17 nM
same,IC50,Z-138,142 nM
same,inhibition in vivo at 30 mg/kg,VCaP,60%
COc1ccc2c(ncc3nc(C4CCOCC4)n([C@H](C)COC(F)F)c32)c1-c1c(C)noc1C,IC50,[12],10 to 21 nM
COc1ccc2c(ncc3nc(C4CCC(F)(F)CC4)n([C@H](C)COC(F)F)c32)c1-c1c(C)noc1C,IC50,[12],10 to 21 nM
Cc1noc(C)c1-c1ccc2c(c1)C(C1CCCC1)(N1CCC[C@H](N)C1)C(=O)N2 (stereo not given in full),IC50,MV4-11 [13],34 nM
same,IC50,[14],8 nM
CCS(=O)(=O)Nc1ccc(Oc2ccc(F)cc2F)c(-c2cn(C)c(=O)c3[nH]c(C#CCN(C)C)cc23)c1,Ki,[10],1.3 nM
same,Ki,[15],3.3 nM
same,EC50,MX1 [16],9.4 nM
Cn1cc2c3c(c[nH]c(=O)c31)CN(c1ccc(F)cc1F)c1ccc(CS(C)(=O)=O)cc1-2,EC50,MX1 [4],16 nM
same,IC50,[5],1.8 nM
same,IC50,[6],2 nM
same,inhibition in vivo at 5 mg/kg,OPM-2 [17],81%
CC[C@@H]1C(=O)Nc2ccc(-c3c(C)noc3C)cc2N1Cc1ccccc1,IC50,[18],70 nM
same,IC50,MV4-11 [19],258 nM
CCn1nc(C2CC2)cc1Nc1nc(C(=O)NCCCOCCOCCOCCCNc2cccc3c2CN(C2CCC(=O)NC2=O)C3=O)nc2[nH]c3cc(-c4c(C)noc4C)c(OC)cc3c12 (stereo not given),IC50,MDA-MB-453 [20],< 10 nM
same,IC90,MDA-MB-453 [20],< 100 nM
same,inhibition in vivo at 5 mg/kg,MDA-MB-453 [21],85%
C[C@@H]1C(=O)N(C)c2ccc(-c3ccc(Nc4cccc(S(=O)(=O)N(C)C)c4)cc3)nc2N1C1CCN(C)CC1,IC50,[22],20 nM
same,IC50,[23],43 nM
COc1cnc2c(ncc3[nH]c(=O)n(Cc4ccccc4)c32)c1-c1c(C)noc1C,IC50,[24],316 nM
Cc1nnc(C[C@@H]2N=C(c3ccc(Cl)cc3)c3ccccc3-n3c(C)nnc32)o1,IC50,[25],20 nM
same,EC50,MOLM-13 [26],140 nM
COc1ccc2c(ncc3nc(N4CCOCC4)n([C@H](C)COC(F)F)c32)c1-c1c(C)noc1C,IC50,[12],10 nM
CC(=O)N1c2ccc(-c3ccc(-c4cnn(C5CC5)c4)c(OC[C@H]4CC4(F)F)c3)cc2CC[C@H]1C,IC50,[27],< 100 nM
same,IC50,[28],< 50 nM
COc1cnc2c(ncc3[nH]c(=O)n(Cc4ccccc4OC(F)(F)F)c32)c1-c1c(C)noc1C,IC50,[24],158 nM
CC(=O)N1c2ccc(-c3ccc(C#N)cc3)cc2[C@H](Nc2ncccc2F)[C@@H](C)[C@@H]1C1CC1,IC50,[29],< 100 nM
COc1ccc2c([nH]c3nc(C)nc(-c4ccnc5ccccc45)c32)c1-c1c(C)noc1C,Ki,[30],8.2 nM
same,Ki,[31],1.4 nM
same,IC50,MV4-11 [13],26 nM
same,IC50,MOLM-13 [32],53 nM
same,bioavailability,[33],93%
same,Activity,MV4-11 [34],>80%
COc1nnc2ccc(N3CCC(c4ccc(OCCN5CCN(C)C(=O)[C@H]5C)cc4)CC3)nn12 [AZD-5153],IC50,[35],5.4 nM
Cc1noc(C)c1-c1cnc2c(-c3ccc(C(=O)O)cc3)cn([C@@H](C)c3ccccn3)c2c1 [PLX-51107],IC50,[36],156 to 10000 nM
